# Columns and labels:
# Assay type in all cases: cell-based, human
# AR V7 variant mRNA [1] = test: AR V7 variant RNA in VCaP cells; details: 48 hrs
# Description: Cells were plated at 10,000 cells per well. […] ISIS 549148 was included as a negative control. After an incubation period of 48 hrs, RNA levels of full length AR, the V7 variant, PSA and TMPRSS2 were measured.
# A separate set of cells was treated with MDV-3100 at 0.04 μM, 0.2 μM, 1.0 μM, or 5.0 μM. After an incubation period of 48 hrs, RNA levels of full length AR, the V7 variant, PSA and TMPRSS2 were measured. The data is presented in Tables 108 expressed as percent expression of gene levels compared to the untreated control.
# Cells were plated at 15,000 cells per well and cultured in CSS media for 16 hours. […] ISIS 549148 was included as a negative control. After 4 hrs, 1 nM DHT was added. […] After an incubation period of 48 hrs, RNA levels of AR, PSA and TMPRSS2 were measured. […]
# TMPRSS2 mRNA [2] = test: TMPRSS2 expression in VCaP cells; details: 48 hrs
# Description: Cells were plated at 10,000 cells per well. […] After an incubation period of 48 hrs, RNA levels of full length AR, the V7 variant, PSA and TMPRSS2 were measured.
# After an incubation period of 48 hrs, RNA levels of full length AR, the V7 variant, PSA and TMPRSS2 were measured. The data is presented in Tables 108 expressed as percent expression of gene levels compared to the untreated control.
# Cells were plated at 15,000 cells per well and cultured in CSS media for 16 hours. […] After 4 hrs, 1 nM DHT was added. […] After an incubation period of 48 hrs, RNA levels of AR, PSA and TMPRSS2 were measured.
# PSA mRNA = test: PSA expression in C4-2 cells; details: 48 hrs; for Percent inhibition of PSA expression: C4-2 cells, CSS + DHT medium
# Description: Cells were plated at 1,000 cells per well. […] After an incubation period of 48 hrs, RNA levels of AR, PSA and TMPRSS2 were measured.
# Cells were plated at 2,000 cells per well and cultured in CSS media with 1 nM DHT. […] After an incubation period of 48 hrs, RNA levels of AR, PSA and TMPRSS2 were measured.
# AR V7 variant mRNA [3] = test: AR V7 variant RNA in 22RV1 cells; details: 48 hrs
# LMR20 cells = test: Proliferation of MDV3100-resistant LMR20 cells (MTT; with R1881 or DHT); details: 5 days
# Description: LMR20 cells were plated at 1,500 cells per well in phenol red-free medium with charcoal-stripped fetal bovine serum (CSS), to remove any androgens from the medium (Life Technologies). […] The synthetic androgen agonist, R1881, (Takeda, A. N. et al., Mol. Pharmacol. 2007. 71: 473-82) was added on day 1 at 1 nM dose to a set of cells also treated with each of the antisense oligonucleotides. DHT was added on day 1 at a dose of 10 nM to another set of cells also treated with each of the antisense oligonucleotides. […] After a treatment period of 5 days, the proliferative ability of the cancer cells was measured by the standard MTT assay. Results are presented in Table 42 as percent inhibition of proliferation, relative to non-treated cells.
# TMPRSS2 mRNA [4] = test: TMPRSS2 expression in 22RV1 cells; details: 48 hrs
# Description: Cells were plated at 1,000 cells per well. […] After an incubation period of 48 hrs, RNA levels of full length AR, the V7 variant, PSA and TMPRSS2 were measured.
# After an incubation period of 48 hrs, RNA levels of full length AR, the V7 variant, PSA and TMPRSS2 were measured.
# Cells were plated at 2,000 cells per well and cultured in CSS media for 16 hours. […] After 4 hrs, 1 nM DHT was added. […] After an incubation period of 48 hrs, RNA levels of AR, AR V7 variant, PSA and TMPRSS2 were measured.
# cleaved PARP = test: Cleaved PARP western blot in VCaP cells
structure (smiles),measurement,setting,value
"CNC(=O)c1ccc(N2C(=S)N(c3ccc(C#N)c(C(F)(F)F)c3)C(=O)C2(C)C)cc1F [MDV3100, 4-(3-(4-cyano-3-(trifluoromethyl)phenyl)-5,5-dimethyl-4-oxo-2-thioxoimidazolidin-1-yl)-2-fluoro-N-methylbenzamide, reference compound]","Percent of gene expression, AR V7 variant","AR V7 variant mRNA [1]; CSS + DHT medium, 0.04 μM",82%
same,"Percent of gene expression, AR V7 variant","AR V7 variant mRNA [1]; CSS + DHT medium, 0.2 μM",65%
same,"Percent of gene expression, AR V7 variant","AR V7 variant mRNA [1]; CSS + DHT medium, 1.0 μM",101%
same,"Percent of gene expression, AR V7 variant","AR V7 variant mRNA [1]; CSS + DHT medium, 5.0 μM",181%
same,"Percent of gene expression, AR V7 variant","AR V7 variant mRNA [1]; complete medium, 0.04 μM",172%
same,"Percent of gene expression, AR V7 variant","AR V7 variant mRNA [1]; complete medium, 0.2 μM",179%
same,"Percent of gene expression, AR V7 variant","AR V7 variant mRNA [1]; complete medium, 1.0 μM",244%
same,"Percent of gene expression, AR V7 variant","AR V7 variant mRNA [1]; complete medium, 5.0 μM",237%
same,"Percent of gene expression, TMPRSS2","TMPRSS2 mRNA [2]; CSS + DHT medium, 0.04 μM",115%
same,"Percent of gene expression, TMPRSS2","TMPRSS2 mRNA [2]; CSS + DHT medium, 0.2 μM",96%
same,"Percent of gene expression, TMPRSS2","TMPRSS2 mRNA [2]; CSS + DHT medium, 1.0 μM",70%
same,"Percent of gene expression, TMPRSS2","TMPRSS2 mRNA [2]; CSS + DHT medium, 5.0 μM",42%
same,"Percent of gene expression, TMPRSS2","TMPRSS2 mRNA [2]; complete medium, 0.04 μM",131%
same,"Percent of gene expression, TMPRSS2","TMPRSS2 mRNA [2]; complete medium, 0.2 μM",121%
same,"Percent of gene expression, TMPRSS2","TMPRSS2 mRNA [2]; complete medium, 5.0 μM",141%
same,Percent inhibition of PSA expression,PSA mRNA; 0.04 μM,9%
same,Percent inhibition of PSA expression,PSA mRNA; 0.2 μM,8%
same,Percent inhibition of PSA expression,PSA mRNA; 1 μM,51%
same,Percent inhibition of PSA expression,PSA mRNA; 5.0 μM,73%
same,Percent inhibition of PSA expression in C4-2 cells cultured in complete medium,PSA mRNA; 0.04 μM,28%
same,Percent inhibition of PSA expression in C4-2 cells cultured in complete medium,PSA mRNA; 0.2 μM,40%
same,Percent inhibition of PSA expression in C4-2 cells cultured in complete medium,PSA mRNA; 1 μM,72%
same,Percent inhibition of PSA expression in C4-2 cells cultured in complete medium,PSA mRNA; 5.0 μM,89%
same,"Percent of gene expression, AR V7 variant","AR V7 variant mRNA [3]; CSS + DHT medium, 0.04 μM",16%
same,"Percent of gene expression, AR V7 variant","AR V7 variant mRNA [3]; CSS + DHT medium, 0.2 μM",17%
same,"Percent of gene expression, AR V7 variant","AR V7 variant mRNA [3]; CSS + DHT medium, 1.0 μM",19%
same,"Percent of gene expression, AR V7 variant","AR V7 variant mRNA [3]; CSS + DHT medium, 5.0 μM",12%
same,"Percent of gene expression, AR V7 variant","AR V7 variant mRNA [3]; complete medium, 0.04 μM",106%
same,"Percent of gene expression, AR V7 variant","AR V7 variant mRNA [3]; complete medium, 0.2 μM",98%
same,"Percent of gene expression, AR V7 variant","AR V7 variant mRNA [3]; complete medium, 1.0 μM",87%
same,"Percent of gene expression, AR V7 variant","AR V7 variant mRNA [3]; complete medium, 5.0 μM",77%
same,Percent inhibition of LMR20 cell proliferation,"LMR20 cells; CSS + DHT, ASO 0.04 μM",0%
same,Percent inhibition of LMR20 cell proliferation,"LMR20 cells; CSS + DHT, ASO 0.20 μM",1%
same,Percent inhibition of LMR20 cell proliferation,"LMR20 cells; CSS + DHT, ASO 1.0 μM",13%
same,Percent inhibition of LMR20 cell proliferation,"LMR20 cells; CSS + DHT, ASO 5.0 μM",41%
same,Percent inhibition of LMR20 cell proliferation,"LMR20 cells; CSS + R1881, ASO 0.04 μM",0%
same,Percent inhibition of LMR20 cell proliferation,"LMR20 cells; CSS + R1881, ASO 0.20 μM",5%
same,Percent inhibition of LMR20 cell proliferation,"LMR20 cells; CSS + R1881, ASO 1.0 μM",31%
same,Percent inhibition of LMR20 cell proliferation,"LMR20 cells; CSS + R1881, ASO 5.0 μM",67%
same,Percent inhibition of LMR20 cell proliferation,"LMR20 cells; CSS, ASO 0.04 μM",0%
same,Percent inhibition of LMR20 cell proliferation,"LMR20 cells; CSS, ASO 0.20 μM",5%
same,Percent inhibition of LMR20 cell proliferation,"LMR20 cells; CSS, ASO 1.0 μM",0%
same,Percent inhibition of LMR20 cell proliferation,"LMR20 cells; CSS, ASO 5.0 μM",11%
same,"Percent of gene expression, TMPRSS2","TMPRSS2 mRNA [4]; CSS + DHT medium, 0.04 μM",17%
same,"Percent of gene expression, TMPRSS2","TMPRSS2 mRNA [4]; CSS + DHT medium, 0.2 μM",9%
same,"Percent of gene expression, TMPRSS2","TMPRSS2 mRNA [4]; CSS + DHT medium, 1.0 μM",26%
same,"Percent of gene expression, TMPRSS2","TMPRSS2 mRNA [4]; CSS + DHT medium, 5.0 μM",18%
same,"Percent of gene expression, TMPRSS2","TMPRSS2 mRNA [4]; complete medium, 0.04 μM",101%
same,"Percent of gene expression, TMPRSS2","TMPRSS2 mRNA [4]; complete medium, 0.2 μM",80%
same,"Percent of gene expression, TMPRSS2","TMPRSS2 mRNA [4]; complete medium, 1.0 μM",82%
same,"Percent of gene expression, TMPRSS2","TMPRSS2 mRNA [4]; complete medium, 5.0 μM",93%
same,cleaved PARP levels (western blot),cleaved PARP,increased in a dose-dependent manner

# Source: patent USRE48461E1, “Modulation of androgen receptor expression” (Ionis Pharmaceuticals, Inc., priority 2012, dated 2021)
